Measurements: patent US6410533B1, “Antibacterial compounds” (Genzyme Corporation, priority 2000, dated 2002)
Converted amounts (≈) assume the structure as drawn. Where two headings read alike, the source gives them in different places.

Key:
[1] = tested on: Staphylococcus aureus bacteria (ATCC 9604 SV); test: Minimal inhibitory concentration (MIC), broth microdilution; format: cell-based; settings: 24 h at 37° C.
Experimental: Minimal inhibitory concentrations (MICs) for Staphylococcus aureus bacteria (ATCC 9604 SV) were determined by broth microdilution methodology following National Committee for Clinical Laboratory Standards. In the MIC determinations, the compounds were incorporated into Mueller-Hinton broth (Becton Dickinson Microbiology systems, Cockeyville, Md.) at a series of concentrations. After the test organism was grown overnight in TB broth, the broths were adjusted to the turbidity equivalent to 0.05 McFarland standard. The suspensions were diluted twenty-fold into the broth containing the compounds. […] In the IC50 determination, the method was modified to allow the rapid growth of the organisms. The inoculum suspensions were adjusted to 0.1 McFarland standard and then diluted two-fold into the wells containing TB broth and the compounds. After three to five hours incubation at 37° C., the turbidity was measured at 550 nm and inhibitory activity was defined as the concentration of antimicrobial agent that inhibits 50% growth of the organism in the microdilution wells.

[2] = tested on: methicillin-resistant Staphylococcus aureus (ATCC 33591); test: In vivo mouse intraperitoneal infection, mortality and % survivors over 7 days; settings: 1 and 5 h post inoculation, MRSA ATCC 33591 i.p., ICR mice
Experimental: Ten male ICR mice weighing 20 grams were inoculated intraperitoneally with an LD90-100 dose (2-3×10^7 CFU/mouse) of methicillin-resistant Staphylococcus aureus (ATCC 33591) in brain-heart infusion broth containing 5% mucin. Compounds were suspended in a vehicle containing 1% cremophore EL (Sigma) in normal saline and were administered subcutaneously in a volume of 0.4 ml per mouse either 1 hour following bacterial inoculation or 1 and 5 hours post inoculation. Animals receiving two doses of drug were injected subcutaneously in the hindquarter one hour post-innoculation and in the neck area, 5 hours post-innoculation. Deaths occurring during the subsequent 7 days are recorded. Mortality and % survivor endpoints are calculated.

[3] = Staphylococcus aureus ATCC 9604 SV
[4] = ATCC9604, Staphylococcus aureus ATCC 9604 SV, read-out: MIC

SMILES | MIC [1, 3] | other results
CC1(C)C(=O)N(c2cc(Cl)cc(Cl)c2)N=C1c1ccccc1 [Compound 4] | >8.33 mg/L | 
CC1=NN(c2cc(Cl)cc(Cl)c2)C(=O)C1 [Compound 5] | 6.08 mg/L (≈ 25 µM) | 
Cc1ccc(C2=NN(c3cc(Cl)cc(Cl)c3)C(=O)C2)cc1 [Compound 6] | >7.98 mg/L | 
O=C1CC(c2ccccc2F)=NN1c1cc(Cl)cc(Cl)c1 [Compound 7] | >8.08 mg/L | 
O=C1CC(C2CCCCC2)=NN1c1cc(Cl)cc(Cl)c1 [Compound 8] | >7.78 mg/L | 
CN(C)C=C1C(=O)N(c2cc(Cl)cc(Cl)c2)N=C1c1ccccc1 [Compound 9, 2-(3,5-Dichloro-phenyl)-4-dimethylaminomethylene-5-phenyl-2,4-dihydro-pyrazol-3-one] |  | MIC [1, 4]: > 9.01 mg/L
CCCC1=NN(c2cc(Cl)cc(Cl)c2)C(=O)C1 [Compound 10] | 0.813 mg/L (≈ 3 µM) | In Vivo, double dose (% of mice rescued) ([2]; 2 × 2 mg/kg s.c.): 0% @ 2 × 2 mg/kg; In Vivo, double dose (% of mice rescued) ([2]; 2 × 20 mg/kg s.c.): 0% @ 2 × 20 mg/kg
CC1=NN(c2cc(Cl)cc(Cl)c2)C(=O)C1C (stereo not drawn) [Compound 11] | >6.43 mg/L | 
O=C1C2CCCC2=NN1c1cc(Cl)cc(Cl)c1 (stereo not drawn) [Compound 12] | >6.73 mg/L | 
CC(C)C1=NN(c2cc(Cl)cc(Cl)c2)C(=O)C1 [Compound 13] | >6.78 mg/L | 
O=C1CC(C(F)(F)F)=NN1c1cc(Cl)cc(Cl)c1 [Compound 14] | 3.56 mg/L (≈ 12 µM) | 
O=C1CC(c2cccc(F)c2)=NN1c1cc(Cl)cc(Cl)c1 [Compound 15] | 0.485 mg/L (≈ 1.5 µM) | In Vivo, double dose (% of mice rescued) ([2]; 2 × 2 mg/kg s.c.): 0% @ 2 × 2 mg/kg; In Vivo, double dose (% of mice rescued) ([2]; 2 × 20 mg/kg s.c.): 0% @ 2 × 20 mg/kg
O=C1CC(c2ccc(F)cc2)=NN1c1cc(Cl)cc(Cl)c1 [Compound 16] | 0.485 mg/L (≈ 1.5 µM) | In Vivo, double dose (% of mice rescued) ([2]; 2 × 2 mg/kg s.c.): 0% @ 2 × 2 mg/kg; In Vivo, double dose (% of mice rescued) ([2]; 2 × 20 mg/kg s.c.): 25% @ 2 × 20 mg/kg
CCC1=NN(c2cc(Cl)cc(Cl)c2)C(=O)C1 [Compound 17] | 1.54 mg/L (≈ 5.99 µM) | In Vivo, double dose (% of mice rescued) ([2]; 2 × 2 mg/kg s.c.): 12.5% @ 2 × 2 mg/kg; In Vivo, double dose (% of mice rescued) ([2]; 2 × 20 mg/kg s.c.): 25% @ 2 × 20 mg/kg
O=C1C2CCCCC2=NN1c1cc(Cl)cc(Cl)c1 (stereo not drawn) [Compound 18] | >7.08 mg/L | 
O=C1C(=Cc2ccncc2)C(c2ccccc2)=NN1c1cc(Cl)cc(Cl)c1 [Compound 19] | 1.15 mg/L (≈ 2.92 µM) | In Vivo, double dose (% of mice rescued) ([2]; 2 × 2 mg/kg s.c.): 0% @ 2 × 2 mg/kg; In Vivo, double dose (% of mice rescued) ([2]; 2 × 20 mg/kg s.c.): 25% @ 2 × 20 mg/kg
CCC1C(=O)N(c2cc(Cl)cc(Cl)c2)N=C1C (stereo not drawn) [Compound 20] | >6.78 mg/L | 
CC1=NN(c2cc(Cl)cc(Cl)c2)C(=O)C1Cc1ccccc1 (stereo not drawn) [Compound 21] | 8.33 mg/L (≈ 25 µM) | 
CC(C)=C1C(=O)N(c2cc(Cl)cc(Cl)c2)N=C1c1ccccc1 [Compound 22] | 0.518 mg/L (≈ 1.5 µM) | In Vivo, double dose (% of mice rescued) ([2]; 2 × 2 mg/kg s.c.): 0% @ 2 × 2 mg/kg; In Vivo, double dose (% of mice rescued) ([2]; 2 × 20 mg/kg s.c.): 25% @ 2 × 20 mg/kg
O=C1C(=NO)C(c2ccccc2)=NN1c1cc(Cl)cc(Cl)c1 [Compound 23, 2-(3,5-Dichloro-phenyl)-5-phenyl-2H-pyrazole-3,4-dione-4-oxime] |  | In Vivo, double dose (% of mice rescued) ([2]; 2 × 2 mg/kg s.c.): 0% @ 2 × 2 mg/kg; In Vivo, double dose (% of mice rescued) ([2]; 2 × 20 mg/kg s.c.): 25% @ 2 × 20 mg/kg; MIC [1, 4]: 8.35 mg/L (≈ 25 µM)
O=C(C=C1C(=O)N(c2cc(Cl)cc(Cl)c2)N=C1c1ccccc1)c1ccccc1 [Compound 26] | >12.5 mg/L | 
CCN(CC)c1ccc(C=C2C(=O)N(c3cc(Cl)cc(Cl)c3)N=C2c2ccccc2)cc1 [Compound 27] | >12.5 mg/L | 
CN(C)CCCOc1ccc(C=C2C(=O)N(c3cc(Cl)cc(Cl)c3)N=C2c2ccccc2)cc1 [Compound 28] | >12.5 mg/L | 
O=C1C(=Cc2ccccn2)C(c2ccccc2)=NN1c1cc(Cl)cc(Cl)c1 [Compound 29] | 12.5 mg/L (≈ 31.7 µM) | 
Cn1cccc1C=C1C(=O)N(c2cc(Cl)cc(Cl)c2)N=C1c1ccccc1 [Compound 32] | 0.320 mg/L (≈ 0.808 µM) | 
O=C1C(=Cc2ccco2)C(c2ccccc2)=NN1c1cc(Cl)cc(Cl)c1 [Compound 35] | >12.5 mg/L | 
O=C1C(=Cc2cccs2)C(c2ccccc2)=NN1c1cc(Cl)cc(Cl)c1 [Compound 36] | 12.5 mg/L (≈ 31.3 µM) | 
O=C1C(=Cc2nccs2)C(c2ccccc2)=NN1c1cc(Cl)cc(Cl)c1 [Compound 37] | 12.5 mg/L (≈ 31.2 µM) | 
CSc1ccc(C=C2C(=O)N(c3cc(Cl)cc(Cl)c3)N=C2c2ccccc2)cc1 [Compound 38] | 6.25 mg/L (≈ 14.2 µM) | 
O=C1CC(c2cccnc2)=NN1c1cc(Cl)cc(Cl)c1 [Compound 53] | 7.65 mg/L (≈ 25 µM) | 

Second part, led by results:

MIC [1, 3] | SMILES | other results
>10.0 mg/L | O=C1C(=Cc2c[nH]c3ccccc23)C(c2ccccc2)=NN1c1cc(Cl)cc(Cl)c1 [Compound 39] | 
12.5 mg/L (≈ 27.3 µM) | CCOC(=O)N1CCC(=C2C(=O)N(c3cc(Cl)cc(Cl)c3)N=C2c2ccccc2)CC1 [Compound 41] | 
0.400 mg/L (≈ 0.896 µM) | Cn1cc(C=C2C(=O)N(c3cc(Cl)cc(Cl)c3)N=C2c2ccccc2)c2ccccc21 [Compound 43] | 
12.5 mg/L (≈ 27.7 µM) | COC(=O)c1ccccc1C=C1C(=O)N(c2cc(Cl)cc(Cl)c2)N=C1c1ccccc1 [Compound 44] | 
2.33 mg/L (≈ 6.26 µM) | O=C1CC(c2ccccc2)=NN1c1cc(C(F)(F)F)cc(C(F)(F)F)c1 [Compound 47] | 
>7.65 mg/L | O=C1CC(c2ccccn2)=NN1c1cc(Cl)cc(Cl)c1 [Compound 48] | 
7.15 mg/L (≈ 25 µM) | CCC1=NN(c2cc(Cl)cc(Cl)c2)C(=O)C1=NO [Compound 60] | 
8.53 mg/L (≈ 25 µM) | CCC1=NN(c2cc(Cl)cc(Cl)c2)C(=O)C1=CCCC(=O)O [Compound 61] | 
12.5 mg/L (≈ 28.1 µM) | CCOC(=O)C1=NN(c2cc(Cl)cc(Cl)c2)C(=O)C1=CC1C(=O)Nc2ccccc21 (stereo not drawn) [Compound 62] | 
12.5 mg/L (≈ 28.9 µM) | CCOC(=O)C1=NN(c2cc(Cl)cc(Cl)c2)C(=O)C1=Cc1ccc(C(=O)O)cc1 [Compound 63] | 
6.25 mg/L (≈ 17.5 µM) | CCOC(=O)C1=NN(c2cc(Cl)cc(Cl)c2)C(=O)C1=CC(=O)O [Compound 64] | 
3.76 mg/L (≈ 12.5 µM) | CCOC(=O)C1=NN(c2cc(Cl)cc(Cl)c2)C(=O)C1 [Compound 67] | 
11.8 mg/L (≈ 25 µM) | CCC1=NN(c2cc(Cl)cc(Cl)c2)C(=O)C1=Cc1cccc(C(=O)N2CCN(C)CC2)c1 [Compound 68] | 
11.5 mg/L (≈ 25.1 µM) | CCC1=NN(c2cc(Cl)cc(Cl)c2)C(=O)C1=Cc1cccc(C(=O)N2CCOCC2)c1 [Compound 69] | 
5.40 mg/L (≈ 12.5 µM) | CCC1=NN(c2cc(Cl)cc(Cl)c2)C(=O)C1=Cc1cccc(C(=O)NCCO)c1 [Compound 70] | 
9.05 mg/L (≈ 25 µM) | O=C(NCc1cccc(Cl)c1)Nc1nc(-c2cccc(F)c2)cs1 [Compound 174] | 
5.15 mg/L (≈ 12.5 µM) | O=C(NCc1cccc(Cl)c1)Nc1nc(-c2ccc(C(F)(F)F)cc2)cs1 [Compound 176] | 
5.16 mg/L (≈ 12.5 µM) | O=C(NCc1cccc(Cl)c1)Nc1nc(-c2ccc(Cl)cc2Cl)cs1 [Compound 177] | 
9.50 mg/L (≈ 25 µM) | O=C(NCc1cccc(Cl)c1)Nc1nc(-c2ccc(F)cc2F)cs1 [Compound 178] | 
5.16 mg/L (≈ 12.5 µM) | O=C(NCc1cccc(Cl)c1)Nc1nc(-c2ccc(Cl)c(Cl)c2)cs1 [Compound 179] | 
9.40 mg/L (≈ 25 µM) | Cc1cc(-c2csc(NC(=O)NCc3cccc(Cl)c3)n2)ccc1F [Compound 180] | 
11.4 mg/L (≈ 24.9 µM) | O=C(NCc1ccc(Cl)c(Cl)c1)Nc1nc(-c2ccc(Br)cc2)cs1 [Compound 181] | 
